Measured values reported in patent US20230059136A1, “THE COMPOUNDS AND COMPOSITIONS FOR TREATING CONDITIONS ASSOCIATED WITH NLRP ACTIVITY” (Novartis AG, priority 2018, published 2023).

What follows are molecules tested on IL-1β production in PMA-differentiated THP-1 cells (assay: IL-1β production in PMA-differentiated THP-1 cells stimulated with gramicidin (hTHP-1 assay containing 2% fetal bovine serum)). Conditions: Homo sapiens, THP-1, Table B1; 2% fetal bovine serum; cells printed as numeric bound; read-out: hTHP-1 IC50 (Average IC50 of compounds in hTHP-1 assay).
Format: cell-based, human
How it was run: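 IL-1β release was read by HTRF on supernatants of 50,000 PMA-primed (20 ng/ml, 16-18 h) THP-1 cells/well in 2% FBS medium. Cells saw compound for 1 h (11-point titration from 100 μM, 0.37% DMSO) before a 2 h gramicidin (5 μM) challenge.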

Structure (SMILES)	IC50
CC(C)c1cc2c(c(C(C)C)c1CC(=O)N=S(N)(=O)c1ccn(C(F)F)n1)COC2 (single isomer, unassigned) [Example 320, (S) or (R)-N-(amino(1-(difluoromethyl)-1H-pyrazol-3-yl)(oxo)-λ^6-sulfaneylidene)-2-(4,6-diisopropyl-1,3-dihydroisobenzofuran-5-yl)acetamide]	> 30000 nM

Same assay, conditions: Homo sapiens, THP-1, Table B1; 2% fetal bovine serum; class symbols; read-out: hTHP-1 IC50 (Average IC50 of compounds in hTHP-1 assay)

Structure (SMILES)	IC50
CC(C)c1cc(C#N)cc(C(C)C)c1CC(=O)N=S(N)(=O)c1sc(C(C)(C)O)nc1CO (stereo not drawn) [Example 22, N-(amino(4-(hydroxymethyl)-2-(2-hydroxypropan-2-yl)thiazol-5-yl)(oxo)-λ^6-sulfaneylidene)-2-(4-cyano-2,6-diisopropylphenyl)acetamide]	200 to 1000 nM
CC(C)c1cc2c(c(C(C)C)c1CC(=O)N=S(N)(=O)c1cnn3c1OCCC3)COC2 (stereo not drawn) [Example 267, N-(amino(6,7-dihydro-5H-pyrazolo[5,1-b][1,3]oxazin-3-yl)(oxo)-λ^6-sulfaneylidene)-2-(4,6-diisopropyl-1,3-dihydroisobenzofuran-5-yl)acetamide]	5000 to 30000 nM
CC(C)c1cc2c(c(C(C)C)c1CC(=O)N=S(N)(=O)c1sc(CN(C)C)cc1F)COC2 (stereo not drawn) [Example 249, N-(amino(5-((dimethylamino)methyl)-3-fluorothiophen-2-yl)(oxo)-λ^6-sulfaneylidene)-2-(4,6-diisopropyl-1,3-dihydroisobenzofuran-5-yl)acetamide]	1000 to 5000 nM
CC(C)c1cc(C(F)F)nc(C(C)C)c1CC(=O)N=S(N)(=O)c1sc(CN(C)C)cc1F (single isomer, unassigned) [Example 306, (R) or (S)-N-(amino(5-((dimethylamino)methyl)-3-fluorothiophen-2-yl)(oxo)-λ^6-sulfaneylidene)-2-(6-(difluoromethyl)-2,4-diisopropylpyridin-3-yl)acetamide]	200 to 1000 nM
COCc1cc(C(C)C)c(CC(=O)N=S(N)(=O)c2ncc(C(C)(C)O)s2)c(C(C)C)c1 (stereo not drawn) [Example 111, N-(amino(5-(2-hydroxypropan-2-yl)thiazol-2-yl)(oxo)-λ^6-sulfaneylidene)-2-(2,6-diisopropyl-4-(methoxymethyl)phenyl) acetamide]	40 to 200 nM
CC(C)c1cc(F)cc(C(C)C)c1CC(=O)N=S(N)(=O)c1ncc(C(C)(C)O)s1 (stereo not drawn) [Example 7, 2-(4-Fluoro-2,6-diisopropylphenyl)-N-(5-(2-hydroxypropan-2-yl)thiazole-2-sulfonimidoyl)acetamide]	200 to 1000 nM
CC(C)(O)c1ncc(S(N)(=O)=NC(=O)Cc2cc3c(c4c2CCC4)CCC3)s1 (single isomer, unassigned) [Example 313, (R) or (S)-N-(amino(2-(2-hydroxypropan-2-yl)thiazol-5-yl)(oxo)-λ^6-sulfaneylidene)-2-(1,2,3,6,7,8-hexahydro-as-indacen-4-yl)acetamide]	5000 to 30000 nM
CC(C)c1cc(COC2CCCC2)cc(C(C)C)c1CC(=O)N=S(N)(=O)c1cnc(C(C)(C)O)s1 (stereo not drawn) [Example 141, N-(amino(2-(2-hydroxypropan-2-yl)thiazol-5-yl)(oxo)-λ^6-sulfaneylidene)-2-(4-((cyclopentyloxy)methyl)-2,6-diisopropylphenyl)acetamide]	40 to 200 nM
CC(C)c1cc2c(c(C(C)C)c1CC(=O)N=S(N)(=O)c1cnc(C(C)(C)O)s1)CCC2 (single isomer, unassigned) [Example 213, (S) or (R)-N-(amino(2-(2-hydroxypropan-2-yl)thiazol-5-yl)(oxo)-λ^6-sulfaneylidene)-2-(4,6-diisopropyl-2,3-dihydro-1H-inden-5-yl)acetamide]	1000 to 5000 nM
Cc1c2c(cc(C3CC3)c1CC(=O)N=[S@@](N)(=O)c1cnc(C(C)(C)O)s1)CCC2 [Example 233, (R)-N-(amino(2-(2-hydroxypropan-2-yl)thiazol-5-yl)(oxo)-λ^6-sulfaneylidene)-2-(6-cyclopropyl-4-methyl-2,3-dihydro-1H-inden-5-yl)acetamide]	5000 to 30000 nM
CCc1c2c(cc(C(C)C)c1CC(=O)N=S(N)(=O)c1cc(C(C)(C)O)cs1)COC2 (stereo not drawn) [Example 244, N-(amino (4-(2-hydroxypropan-2-yl)thiophen-2-yl)(oxo)-λ^6-sulfaneylidene)-2-(4-ethyl-6-isopropyl-1,3-dihydroisobenzofuran-5-yl) acetamide]	1000 to 5000 nM

Same assay, conditions: Homo sapiens, THP-1, Table B2; 2% fetal bovine serum; cells printed as numeric bound; read-out: hTHP-1 IC50 (Average IC50 of compounds in hTHP-1 assay)

Structure (SMILES)	IC50
COc1cc(-c2cccc(C(C)C)c2CC(=O)N=S(=O)(NC(N)=O)c2cnc([C@@](C)(O)CO)s2)ccn1 (stereo partly drawn) [Example 354, N-((2-((S)-1,2-dihydroxypropan-2-yl)thiazol-5-yl)(oxo)(ureido)-λ^6-sulfaneylidene)-2-(2-isopropyl-6-(2-methoxypyridin-4-yl)phenyl)acetamide]	> 30000 nM
CC(C)c1cc(C#N)c(F)c(C(C)C)c1CC(=O)N=S(=O)(NC(N)=O)c1cnc([C@](C)(O)CO)s1 (stereo partly drawn) [compound 355]	> 30000 nM

Same assay, conditions: Homo sapiens, THP-1, Table B2; 2% fetal bovine serum; class symbols; read-out: hTHP-1 IC50 (Average IC50 of compounds in hTHP-1 assay)

Structure (SMILES)	IC50
CC(C)c1cc(C#N)c(F)c(C(C)C)c1CC(=O)N=S(=O)(NC#N)c1cnc(C(O)CO)s1 (stereo not drawn) [Example 372, N-(cyanamido(2-(1,2-dihydroxyethyl)thiazol-5-yl)(oxo)-λ^6-sulfaneylidene)-2-(4-cyano-3-fluoro-2,6-diisopropylphenyl)acetamide]	5000 to 30000 nM
CC(C)c1cc(C#N)cc(C(C)C)c1CC(=O)N=[S@](=O)(NC#N)c1sc(C(C)(C)O)nc1CCO [Example 373, (S)-N-(cyanamido(4-(2-hydroxyethyl)-2-(2-hydroxypropan-2-yl)thiazol-5-yl)(oxo)-λ^6-sulfaneylidene)-2-(4-cyano-2,6-diisopropylphenyl)acetamide]	5000 to 30000 nM
CC(C)c1cc2c(c(C(C)C)c1CC(=O)N=S(N)(=O)c1ccn(CCO)n1)OC(F)(F)O2 (stereo not drawn) [Example 347, N-(amino(1-(2-hydroxyethyl)-1H-pyrazol-3-yl)(oxo)-λ^6-sulfaneylidene)-2-(2,2-difluoro-4,6-diisopropylbenzo[d][1,3]dioxol-5-yl)acetamide]	1000 to 5000 nM
COc1cc(-c2cccc(C(C)C)c2CC(=O)N=S(N)(=O)c2cnc(C(C)(O)CO)s2)ccn1 (single isomer, unassigned) [Example 351, N-(amino(2-((S or R)-1,2-dihydroxypropan-2-yl)thiazol-5-yl)(oxo)-λ^6-sulfaneylidene)-2-(2-isopropyl-6-(2-methoxypyridin-4-yl)phenyl)acetamide]	200 to 1000 nM
CC(C)c1c2c(c3c(c1CC(=O)N=S(N)(=O)c1sc(C(C)(C)O)cc1F)CCC3)COC2 (stereo not drawn) [Example 395, N-(Amino(3-fluoro-5-(2-hydroxypropan-2-yl)thiophen-2-yl) (oxo)-λ^6-sulfaneylidene)-2-(4-isopropyl-3,6,7,8-tetrahydro-1H-indeno[4,5-c]furan-5-yl)acetamide]	200 to 1000 nM
CC(C)(O)c1ncc([S@](=O)(=NC(=O)Cc2c3c(cc4c2CC4)CCC3)NC#N)s1 [Example 363, (S)-N-(cyanamido(2-(2-hydroxypropan-2-yl)thiazol-5-yl) (oxo)-λ^6-sulfaneylidene)-2-(2,4,5,6-tetrahydro-1H-cyclobuta [f]inden-3-yl)acetamide]	200 to 1000 nM

Same assay, conditions: Homo sapiens, THP-1, read-out: hTHP-1 IC50 in 2% FBS, average IC50; hTHP-1 assay containing 2% fetal bovine serum

Structure (SMILES)	IC50
Cc1cc(C(F)(F)F)cc(O)c1CC(=O)N=S(N)(=O)c1ccccc1 (stereo not drawn) [Example 404, N-(amino(oxo)(phenyl)-λ^6-sulfaneylidene)-2-(2-hydroxy-6-methyl-4-(trifluoromethyl)phenyl)acetamide]	5000 to 30000 nM

Same assay, conditions: Table B1; 2% fetal bovine serum; class symbols; read-out: hTHP-1 IC50 (Average IC50 of compounds in hTHP-1 assay)

Structure (SMILES)	IC50
CC(C)c1c(F)c(C#N)cc(C2CC2)c1CC(=O)N=S(N)(=O)c1sc(C(C)(C)O)cc1F (single isomer, unassigned) [Example 54, (S)- or (R)-2-(4-cyano-6-cyclopropyl-3-fluoro-2-isopropylphenyl)-N-(3-fluoro-5-(2-hydroxypropan-2-yl)thiophen-2-ylsulfonimidoyl)acetamide]	8 to 40 nM
CC(C)c1cc(OC(F)F)cc(C(C)C)c1CC(=O)N=S(N)(=O)c1cnc(C(C)(C)O)s1 (single isomer, unassigned) [Example 48, (S)- or (R)-2-(4-(difluoromethoxy)-2,6-diisopropylphenyl)-N-(2-(2-hydroxypropan-2-yl)thiazol-5-ylsulfonimidoyl)acetamide]	40 to 200 nM
CC(C)(O)c1ncc(S(N)(=O)=NC(=O)Cc2c3c(cc4c2CC4)CCC3)s1 [Example 223, (S)- and (R)—N-(amino(2-(2-hydroxypropan-2-yl)thiazol-5-yl)(oxo)-λ^6-sulfaneylidene)-2-(2,4,5,6-tetrahydro-1H-cyclobuta[f]inden-3-yl)acetamide]	1000 to 5000 nM
CC(C)c1c(F)c(C#N)cc(C2CC2)c1CC(=O)N=S(N)(=O)c1sc(C(C)(C)O)cc1F (single isomer, unassigned) [Example 55, (R)- or (S)-2-(4-cyano-6-cyclopropyl-3-fluoro-2-isopropylphenyl)-N-(3-fluoro-5-(2-hydroxypropan-2-yl)thiophen-2-ylsulfonimidoyl)acetamide]	1000 to 5000 nM
CC(C)c1cc(-c2ccc3ccccc3c2)cc(C(C)C)c1CC(=O)N=S(N)(=O)c1cnc(C(C)(C)O)s1 (single isomer, unassigned) [Example 163, (R) or (S)-N-(amino(2-(2-hydroxypropan-2-yl)thiazol-5-yl)(oxo)-λ^6-sulfaneylidene)-2-(2,6-diisopropyl-4-(naphthalen-2-yl)phenyl) acetamide]	40 to 200 nM
CC(C)c1cc(C(F)F)cc(C(C)C)c1CC(=O)N=S(N)(=O)c1sc(C(C)(C)O)cc1F (single isomer, unassigned) [Example 80, (S)- or (R)-2-(4-(difIuoromethyl)-2,6-diisopropylphenyl)-N-(3-fluoro-5-(2-hydroxypropan-2-yl)thiophen-2-ylsulfonimidoyl)acetamide]	8 to 40 nM
